Values quoted from earlier work in US9744237B2, “Method and system for effecting changes in pigmented tissue” (priority 2009, dated 2017).

Assays:
tyrosinase = conditions: for RAb: relative activity of tyrosinase inhibitor, RAb and F not defined in the patent
uveal melanocytes = conditions: for growth and melanogenesis of cultured uveal melanocytes: cAMP-deleted medium

O=C(/C=C/c1ccc(O)cc1O)c1ccc(O)cc1O [2,4,2′,4′-Tetrahydroxychalcone]
inhibition mechanism on tyrosinase (tyrosinase): Competitive
RAb (tyrosinase): 2.5 F

O=C(/C=C/c1c(O)cc(O)cc1O)c1ccc(O)cc1O [2,4,6,2′,4′-Pentahydroxychalcone]
inhibition mechanism on tyrosinase (tyrosinase): Competitive
RAb (tyrosinase): 12.0 F

O=C(NCc1ccc(O)cc1O)c1cc(O)cc(O)c1 [3,5,2′,4′-Tetrahydfoxyl derivatives]
RAa (tyrosinase; N-Benzylbenzamides, RAa and F not defined in the patent): 7.4 F

O=c1c(-c2ccc(O)cc2)coc2cc(O)c(O)cc12 [6-Hydroxydaidzein, 6,7,4′-trihydroxyisoflavone]
inhibition mechanism on tyrosinase (tyrosinase): Competitive
RAb (tyrosinase): 6.0 F

O=c1c(-c2ccc(O)cc2)coc2c(O)c(O)ccc12 [8-Hydroxydaidzein, 7,8,4′-trihydroxyisoflavone]
inhibition mechanism on tyrosinase (tyrosinase): Suicide substrate

O=c1c(-c2ccc(O)cc2)coc2c(O)c(O)cc(O)c12 [8-Hydroxygenistein, 5,7,8,4′-tetrahydroxyisoflavone]
inhibition mechanism on tyrosinase (tyrosinase): Suicide substrate
tyrosinase inhibitory activity in words (tyrosinase): the most potent suicide substrate of mushroom tyrosinase until now

COc1cc(O)c2c(=O)cc(-c3ccc(O)cc3O)oc2c1 [Artocarpetin, 5,2′,4′-trihydroxy-7-methoxyflavone]
RAb (tyrosinase): < 0.1 F

CC1=C(O)C(=O)C(C)O1 (stereo not shown) [DMHF, 2,5-Dimethyl-4-hydroxy-3(2H)-furanone]
melanogenesis / melanin content / pigmentation (B16 melanoma cells): inhibits a-MSH induced melanogenesis

CNC[C@H](O)c1ccc(O)c(O)c1 [Epinephrine]
growth and melanogenesis of cultured uveal melanocytes (uveal melanocytes): substantially stimulated growth and melanogenesis

COCCNC(=O)COc1ccc(OCCNC[C@H](O)COc2ccccc2)cc1 [Example D7114]
growth and melanogenesis of cultured uveal melanocytes (uveal melanocytes): showed no effect

CC1(C)C=Cc2c(ccc3c2OC[C@@H](c2ccc(O)cc2O)C3)O1 [Glabridine]
inhibition mechanism on tyrosinase (tyrosinase): Non-competitive
RAb (tyrosinase): 15.2 F

COc1c(CC=C(C)C)c(O)cc2c1C[C@H](c1ccc(O)cc1O)CO2 [GlyasperinC]
RAb (tyrosinase): 27.7 F

Oc1ccc(-c2ccc3cc(O)ccc3c2)c(O)c1 [HNB, 4-(6-hydroxy-2-naphtyl)-1.3-bezendiol]
tyrosinase inhibitory activity in words (tyrosinase): the strongest tyrosinase inhibitor published until now

COc1c(O)ccc(C2=Cc3ccc(O)cc3OC2)c1OC [HagininA, 2′,3′-dimethoxy-7,4′-dihdroxyisoflav-3-ene]
inhibition mechanism on tyrosinase (tyrosinase): Non-competitive
RAb (tyrosinase): 10.1 F

Cc1ccc(C2(C)CC(C)(C)c3ccc(C)cc3O2)c(O)c1 (stereo not shown) [Inulavosin]
effect on tyrosinase mRNA / transcription (B16 melanoma cells): without affecting either the enzymatic activities or the transcription of tyrosinase
melanogenesis / melanin content / pigmentation (B16 melanoma cells): reduced the melanin content

C=C(C)[C@H](CC=C(C)C)Cc1c(O)cc(OC)c(C(=O)/C=C/c2ccc(O)cc2O)c1O [Kuraridin]
RAb (tyrosinase): 34.1 F

Br.CCN1C[C@]2(OC(=O)c3ccccc3NC(C)=O)CC[C@H](OC)[C@@]34[C@@H]2C[C@@H]([C@@H]13)[C@@]1(O)C[C@H](OC)[C@H]2C[C@@H]4[C@]1(O)[C@H]2OC [Lappaconitine hydrobromide]
tyrosinase inhibitory activity in words (tyrosinase): activity similar to that of kojic acid

C=CC(C)(C)c1cc(/C=C/C(=O)c2ccc(O)cc2)c(OC)cc1O [LicochalconeA]
inhibition mechanism on tyrosinase (tyrosinase): Competitive
RAb (tyrosinase): 5.4 F

COc1ccc(OC)c(C(O)C(C)N)c1 (stereo not shown) [Methoxamine]
growth and melanogenesis of cultured uveal melanocytes (uveal melanocytes): showed no effect

C[C@@H]1O[C@H](C[N+](C)(C)C)C[C@H]1O [Muscarine]
growth and melanogenesis of uveal melanocytes (uveal melanocytes; complete medium): inhibited the growth and melanogenesis

O=c1cc(-c2ccc(O)cc2O)oc2cc(O)cc(O)c12 [Norartocarpetin]
inhibition mechanism on tyrosinase (tyrosinase): Competitive
RAb (tyrosinase): 10.4 F

O=C1CC(c2ccc(O)cc2O)Oc2cc(O)cc(O)c21 (stereo not shown) [Streppogenin, 5,7,2′,4′-tetrahydroxy-flavavone]
inhibition mechanism on tyrosinase (tyrosinase): Competitive
RAb (tyrosinase): 13.6 F

CC(C)=CCc1c(O)ccc(/C=C/C(=O)c2ccc(O)cc2O)c1O [TMBC, 2,4,2′,4′-tetrahydroxy-3-(3-methy1-2-buteny1)-chalcone]
inhibition mechanism on tyrosinase (tyrosinase): Competitive
RAb (tyrosinase): 26.1 F

Clc1cccc(Cl)c1N=C1NCCN1 [clonidine]
growth and melanogenesis of cultured uveal melanocytes (uveal melanocytes): showed no effect

OC[C@H]1NC[C@@H](O)[C@@H](O)[C@@H]1O [deoxymannojirimycin]
glycosylation, transportation of tyrosinase to the melanosome and melanin synthesis (HM3K0 melanoma cells): showed inhibition of glycosylation, transportation of tyrosinase to the melanosome and melanin synthesis

N[C@H]1C(O)O[C@H](CO)[C@@H](O)[C@@H]1O (stereo partly shown) [glucosamine]
melanogenesis / melanin content / pigmentation (B16 melanoma cells): decreased pigmentation

CC(C)NCC(O)c1ccc(O)c(O)c1 (stereo not shown) [isoproterenol]
growth and melanogenesis of cultured uveal melanocytes (uveal melanocytes): substantially stimulated growth and melanogenesis

CC(C)NCC(O)c1cc(O)cc(O)c1 (stereo not shown) [metaproterenol]
growth and melanogenesis of cultured uveal melanocytes (uveal melanocytes): substantially stimulated growth and melanogenesis

OCc1ccc(O)cc1 [p-hydroxybenzyl alcohol]
inhibition mechanism on tyrosinase (tyrosinase): irreversibly inhibited the enzyme

CC(C)NC[C@H](O)COc1ccc(O)cc1 [prenalterol]
growth and melanogenesis of cultured uveal melanocytes (uveal melanocytes): showed no effect

CC(C)(C)NCC(O)c1ccc(O)c(CO)c1 (stereo not shown) [salbutamol]
growth and melanogenesis of cultured uveal melanocytes (uveal melanocytes): substantially stimulated growth and melanogenesis

Hen egg white lysozyme (HEWL): Hen egg white lysozyme
inhibition mechanism on tyrosinase (tyrosinase): reversibly and irreversibly mixed inhibition mechanism

Kuraridinol
inhibition mechanism on tyrosinase (tyrosinase): Non-competetive

tunicamycin
melanogenesis / melanin content / pigmentation (B16 melanoma cells): decreased pigmentation

B1: TGFbeta2: Transforming growth factor-beta2, growth inhibit factor of uveal melanocytes (protein, UniProt P61812 303-414, looked up)
Transforming growth factor …: ALDAAYCFRNVQDNCCLRPLYIDFKRDLGWKWIHEPKGYNANFCAGACPYLWSSDTQHSRVLSLYNTINPEASASPCCVSQDLEPLTILYYIGKTPKIEQLSNMIVKSCKCS
amount of active TGFbeta2 in aqueous humor sufficient to inhibit the growth of uveal melanocytes (uveal melanocytes): 0.2-0.4 ng m1-1
